{
  "source": "the supplement of paper PMC10307832",
  "experiment_in_all_cases": "relative viability (nuclei count vs DMSO), 5 days (fraction); higher = more cells survive",
  "key": {"LC-2-ad": {"system": "LC-2-ad", "outline": "(§1)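 A single step with final 0.05% Triton X-100, 1% formaldehyde and 1 ug/ml Hoechst fixed the cells and stained nuclei 5 days after treatment. Lung cancer cell lines in 1536-well plates had been treated by pin tool the day after seeding with one drug alone or a fixed anchor-drug dose plus five library-drug doses (not always all listed) in √10 steps, and nuclei were counted on 4× images. Relative viability is the ratio of nuclei in treated wells to nuclei in vehicle wells, taken as the median of duplicate plates.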"}, "EKVX": {"system": "EKVX", "outline": "as §1"}, "NCI-H1395": {"system": "NCI-H1395", "outline": "as §1"}, "NCI-H2347": {"system": "NCI-H2347", "outline": "as §1"}, "NCI-H2228": {"system": "NCI-H2228", "outline": "as §1"}, "NCI-H1651": {"system": "NCI-H1651", "outline": "as §1"}, "LXF-289": {"system": "LXF-289", "outline": "as §1"}, "CAL-12T": {"system": "CAL-12T", "outline": "as §1"}, "H3255": {"system": "H3255", "outline": "as §1"}, "NCI-H2087": {"system": "NCI-H2087", "outline": "as §1"}, "SK-LU-1": {"system": "SK-LU-1", "outline": "as §1"}, "NCI-H1793": {"system": "NCI-H1793", "outline": "as §1"}, "NCI-H1915": {"system": "NCI-H1915", "outline": "as §1"}, "NCI-H1755": {"system": "NCI-H1755", "outline": "as §1"}, "COR-L 105": {"system": "COR-L 105", "outline": "as §1"}, "NCI-H1944": {"system": "NCI-H1944", "outline": "as §1"}, "NCI-H2085": {"system": "NCI-H2085", "outline": "as §1"}, "NCI-H1437": {"system": "NCI-H1437", "outline": "as §1"}, "LK-2": {"system": "LK-2", "outline": "as §1"}, "NCI-H661": {"system": "NCI-H661", "outline": "as §1"}, "SK-MES-1": {"system": "SK-MES-1", "outline": "as §1"}, "PC-3 [JPC-3]": {"system": "PC-3 [JPC-3]", "outline": "as §1"}, "EMC-BAC-2": {"system": "EMC-BAC-2", "outline": "as §1"}},
  "data": [
    {"smiles": "Cc1cnc(-c2cnc(NCCNc3ccc(C#N)cn3)nc2-c2ccc(Cl)cc2Cl)[nH]1", "note": "+ N=C(N)NC(=N)NCCc1ccccc1 [Phenformin] (partner 250 µM)", "values": [
      {"measurement": "relative viability", "setting": "LC-2-ad; first compound 0.08 µM", "result": 0.591},
      {"measurement": "relative viability", "setting": "LC-2-ad; first compound 0.253 µM", "result": 0.515},
      {"measurement": "relative viability", "setting": "LC-2-ad; first compound 2.53 µM", "result": 0.487},
      {"measurement": "relative viability", "setting": "EKVX; first compound 0.08 µM", "result": 0.192},
      {"measurement": "relative viability", "setting": "EKVX; first compound 0.253 µM", "result": 0.226},
      {"measurement": "relative viability", "setting": "EKVX; first compound 0.8 µM", "result": 0.196},
      {"measurement": "relative viability", "setting": "EKVX; first compound 2.53 µM", "result": 0.222},
      {"measurement": "relative viability", "setting": "NCI-H1395; first compound 0.08 µM", "result": 0.483},
      {"measurement": "relative viability", "setting": "NCI-H1395; first compound 0.253 µM", "result": 0.424},
      {"measurement": "relative viability", "setting": "NCI-H1395; first compound 0.8 µM", "result": 0.45},
      {"measurement": "relative viability", "setting": "NCI-H1395; first compound 2.53 µM", "result": 0.431},
      {"measurement": "relative viability", "setting": "NCI-H2347; first compound 0.08 µM", "result": 0.425},
      {"measurement": "relative viability", "setting": "NCI-H2347; first compound 0.253 µM", "result": 0.5},
      {"measurement": "relative viability", "setting": "NCI-H2347; first compound 0.8 µM", "result": 0.397},
      {"measurement": "relative viability", "setting": "NCI-H2347; first compound 2.53 µM", "result": 0.477},
      {"measurement": "relative viability", "setting": "NCI-H2228; first compound 0.08 µM", "result": 0.256},
      {"measurement": "relative viability", "setting": "NCI-H2228; first compound 0.253 µM", "result": 0.357},
      {"measurement": "relative viability", "setting": "NCI-H2228; first compound 0.8 µM", "result": 0.366},
      {"measurement": "relative viability", "setting": "NCI-H2228; first compound 2.53 µM", "result": 0.228},
      {"measurement": "relative viability", "setting": "NCI-H1651; first compound 0.08 µM", "result": 0.383},
      {"measurement": "relative viability", "setting": "NCI-H1651; first compound 0.253 µM", "result": 0.494},
      {"measurement": "relative viability", "setting": "NCI-H1651; first compound 0.8 µM", "result": 0.32},
      {"measurement": "relative viability", "setting": "NCI-H1651; first compound 2.53 µM", "result": 0.324},
      {"measurement": "relative viability", "setting": "LXF-289; first compound 0.08 µM", "result": 0.508},
      {"measurement": "relative viability", "setting": "LXF-289; first compound 0.253 µM", "result": 0.482},
      {"measurement": "relative viability", "setting": "LXF-289; first compound 0.8 µM", "result": 0.536},
      {"measurement": "relative viability", "setting": "LXF-289; first compound 2.53 µM", "result": 0.503},
      {"measurement": "relative viability", "setting": "CAL-12T; first compound 0.08 µM", "result": 0.655},
      {"measurement": "relative viability", "setting": "CAL-12T; first compound 0.253 µM", "result": 0.511},
      {"measurement": "relative viability", "setting": "CAL-12T; first compound 0.8 µM", "result": 0.597},
      {"measurement": "relative viability", "setting": "CAL-12T; first compound 2.53 µM", "result": 0.579},
      {"measurement": "relative viability", "setting": "H3255; first compound 0.08 µM", "result": 0.409},
      {"measurement": "relative viability", "setting": "H3255; first compound 0.253 µM", "result": 0.342},
      {"measurement": "relative viability", "setting": "H3255; first compound 0.8 µM", "result": 0.317},
      {"measurement": "relative viability", "setting": "H3255; first compound 2.53 µM", "result": 0.349},
      {"measurement": "relative viability", "setting": "NCI-H2087; first compound 0.08 µM", "result": 0.571},
      {"measurement": "relative viability", "setting": "NCI-H2087; first compound 0.253 µM", "result": 0.379},
      {"measurement": "relative viability", "setting": "NCI-H2087; first compound 0.8 µM", "result": 0.442},
      {"measurement": "relative viability", "setting": "NCI-H2087; first compound 2.53 µM", "result": 0.329},
      {"measurement": "relative viability", "setting": "SK-LU-1; first compound 0.08 µM", "result": 0.649},
      {"measurement": "relative viability", "setting": "SK-LU-1; first compound 0.253 µM", "result": 0.533},
      {"measurement": "relative viability", "setting": "SK-LU-1; first compound 0.8 µM", "result": 0.576},
      {"measurement": "relative viability", "setting": "SK-LU-1; first compound 2.53 µM", "result": 0.557},
      {"measurement": "relative viability", "setting": "NCI-H1793; first compound 0.08 µM", "result": 0.397},
      {"measurement": "relative viability", "setting": "NCI-H1793; first compound 0.253 µM", "result": 0.333},
      {"measurement": "relative viability", "setting": "NCI-H1793; first compound 0.8 µM", "result": 0.355},
      {"measurement": "relative viability", "setting": "NCI-H1793; first compound 2.53 µM", "result": 0.375},
      {"measurement": "relative viability", "setting": "NCI-H1915; first compound 0.08 µM", "result": 0.378},
      {"measurement": "relative viability", "setting": "NCI-H1915; first compound 0.253 µM", "result": 0.346},
      {"measurement": "relative viability", "setting": "NCI-H1915; first compound 0.8 µM", "result": 0.356},
      {"measurement": "relative viability", "setting": "NCI-H1915; first compound 2.53 µM", "result": 0.389},
      {"measurement": "relative viability", "setting": "NCI-H1755; first compound 0.08 µM", "result": 0.633},
      {"measurement": "relative viability", "setting": "NCI-H1755; first compound 0.253 µM", "result": 0.604},
      {"measurement": "relative viability", "setting": "NCI-H1755; first compound 0.8 µM", "result": 0.634},
      {"measurement": "relative viability", "setting": "NCI-H1755; first compound 2.53 µM", "result": 0.572},
      {"measurement": "relative viability", "setting": "COR-L 105; first compound 0.08 µM", "result": 0.532},
      {"measurement": "relative viability", "setting": "COR-L 105; first compound 0.253 µM", "result": 0.487},
      {"measurement": "relative viability", "setting": "COR-L 105; first compound 0.8 µM", "result": 0.53},
      {"measurement": "relative viability", "setting": "COR-L 105; first compound 2.53 µM", "result": 0.357},
      {"measurement": "relative viability", "setting": "NCI-H1944; first compound 0.08 µM", "result": 0.203},
      {"measurement": "relative viability", "setting": "NCI-H1944; first compound 0.8 µM", "result": 0.221},
      {"measurement": "relative viability", "setting": "NCI-H1944; first compound 2.53 µM", "result": 0.195},
      {"measurement": "relative viability", "setting": "NCI-H2085; first compound 0.08 µM", "result": 0.735},
      {"measurement": "relative viability", "setting": "NCI-H2085; first compound 0.253 µM", "result": 0.688},
      {"measurement": "relative viability", "setting": "NCI-H2085; first compound 0.8 µM", "result": 0.686},
      {"measurement": "relative viability", "setting": "NCI-H2085; first compound 2.53 µM", "result": 0.691},
      {"measurement": "relative viability", "setting": "NCI-H1437; first compound 0.08 µM", "result": 0.304},
      {"measurement": "relative viability", "setting": "NCI-H1437; first compound 0.253 µM", "result": 0.357},
      {"measurement": "relative viability", "setting": "NCI-H1437; first compound 0.8 µM", "result": 0.297},
      {"measurement": "relative viability", "setting": "NCI-H1437; first compound 2.53 µM", "result": 0.295},
      {"measurement": "relative viability", "setting": "LK-2; first compound 0.08 µM", "result": 0.549},
      {"measurement": "relative viability", "setting": "LK-2; first compound 0.253 µM", "result": 0.501},
      {"measurement": "relative viability", "setting": "LK-2; first compound 0.8 µM", "result": 0.379},
      {"measurement": "relative viability", "setting": "LK-2; first compound 2.53 µM", "result": 0.641},
      {"measurement": "relative viability", "setting": "NCI-H661; first compound 0.08 µM", "result": 0.298},
      {"measurement": "relative viability", "setting": "NCI-H661; first compound 0.253 µM", "result": 0.295},
      {"measurement": "relative viability", "setting": "NCI-H661; first compound 0.8 µM", "result": 0.287},
      {"measurement": "relative viability", "setting": "NCI-H661; first compound 2.53 µM", "result": 0.314},
      {"measurement": "relative viability", "setting": "SK-MES-1; first compound 0.08 µM", "result": 0.643},
      {"measurement": "relative viability", "setting": "SK-MES-1; first compound 0.253 µM", "result": 0.648},
      {"measurement": "relative viability", "setting": "SK-MES-1; first compound 0.8 µM", "result": 0.72},
      {"measurement": "relative viability", "setting": "SK-MES-1; first compound 2.53 µM", "result": 0.584},
      {"measurement": "relative viability", "setting": "PC-3 [JPC-3]; first compound 0.08 µM", "result": 0.478},
      {"measurement": "relative viability", "setting": "PC-3 [JPC-3]; first compound 0.253 µM", "result": 0.474},
      {"measurement": "relative viability", "setting": "PC-3 [JPC-3]; first compound 0.8 µM", "result": 0.508},
      {"measurement": "relative viability", "setting": "PC-3 [JPC-3]; first compound 2.53 µM", "result": 0.473},
      {"measurement": "relative viability", "setting": "EMC-BAC-2; first compound 0.08 µM", "result": 0.578},
      {"measurement": "relative viability", "setting": "EMC-BAC-2; first compound 0.253 µM", "result": 0.507},
      {"measurement": "relative viability", "setting": "EMC-BAC-2; first compound 0.8 µM", "result": 0.542},
      {"measurement": "relative viability", "setting": "EMC-BAC-2; first compound 2.53 µM", "result": 0.467}
    ]}
  ]
}
